Reference: patent US6383773B2, “Penicillin conversion” (Massachusetts Institute of Technology, priority 1998, dated 2002)

Key:
C. acremonium expandase = target: T1, C. acremonium expandase (Hapsidospora chrysogena, UniProt P11935); conditions: cited from earlier work
T1 sequence (P11935 1-332): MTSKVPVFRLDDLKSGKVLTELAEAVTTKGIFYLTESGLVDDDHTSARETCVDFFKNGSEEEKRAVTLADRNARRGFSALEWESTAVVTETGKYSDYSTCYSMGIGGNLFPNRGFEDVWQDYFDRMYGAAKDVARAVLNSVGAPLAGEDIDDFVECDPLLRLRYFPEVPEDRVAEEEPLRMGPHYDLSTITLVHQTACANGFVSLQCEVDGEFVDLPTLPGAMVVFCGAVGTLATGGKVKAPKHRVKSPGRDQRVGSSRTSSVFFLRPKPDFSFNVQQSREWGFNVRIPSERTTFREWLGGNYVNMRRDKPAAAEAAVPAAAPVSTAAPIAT

[1] = target: T2, S. clavuligerus expandase (Streptomyces clavuligerus, UniProt P18548); experiment: Penicillin ring expansion by cell-free S. clavuligerus expandase extracts, paper disc-agar diffusion bioassay; assay type: biochemical; conditions: for DAOG: cell-free extract
T2 construct: endogenous in cells; host or cells: S. clavuligerus mutant NP1, crude cell-free extract
Method: Preparation of Cell-free Extracts: Fermentation broths were centrifuged at 8,000×g and 4° C. for 10 min. Pellets were washed twice using 50 mM Tris-HCI supplemented with 0.1 mM dithiothreitol (DTT). The cells were resuspended in the same buffer and disrupted by four 25-sec. sonication treatments (power setting 5 and duty cycle 50%), in an ice-water bath using a Branson 350 sonifier (Branson Sonic Power Co., Danbury, Conn.). Cell debris was removed by centrifugation (14,000×g, 30 min., 4° C.). The resulting extracts containing 8-10 mg protein/ml were placed on ice and utilized immediately. Protein concentrations were measured using the Bio-Rad protein assay (Bio-Rad, Hercules, Calif.). Bovine serum albumin was used as standard.
(§1) Ring Expansion Reaction: We defined ring expansion reaction conditions as modifications of the standard reaction mixture for expandase reactions described by Maeda et al. (Maeda et al., Enzyme Microb. Technol. 17:231-34, 1995) except that penicillin G was used a substrate instead of penicillin N. Additions were made following the order established by Shen et al. (Shen et al., Enzyme Microb. Technol. 6:402-404, 1984. Reaction mixtures were incubated in test tubes (cell-free extract) or 250 ml baffled flasks (resting cells) at 220 rpm, 30° C. Reactions containing the protein extract were stopped at various times (see Table 1 and Figure Legends) by mixing 0.5 ml of assay solution with 0.5 ml of methanol. In the case of resting cells, samples were centrifuged to remove cells and supernatants were transferred to new tubes. Expandase activity was detected by paper disc-agar diffusion bioassay.
(§2) Detection of Expandase Activity: As mentioned above, expandase activity was detected by assaying production of a growth-inhibitory zone in a paper disc-agar diffusion bioassay. Paper discs were saturated with 200 μl of the reaction mixture (cell-free extracts or supernatant (resting cells) as follows. Two discs were superimposed and four 50 μl samples were applied. After each application, the discs were allowed to dry for 20 min at 37° C. under a laminar hood and, finally, they were placed on LB (1% tryptone, 0.5% NaCl, 0.5% yeast extract, 0.1% glucose) 0.8% agar medium seeded with E. coli ESS (a β-lactam supersensitive mutant), and the plates were incubated overnight at 37° C. The formation of DAOG and/or other cephalosporin(s) was determined by including 50,000 IU/ml of penicillinase (Difco Bacto penase concentrate, Difco Laboratories, Detroit, Mich.) in the assay plates. This penicillinase is a narrow spectrum β-lactamase that attacks penicillins but not cephalosporins. The diameters of zones of growth inhibition were measured and quantified with a calibration curve using DAOG as standard.
Ring Expansion of Other Penicillins by Cell-free Extracts: We tested our reaction conditions for their ability to support ring expansion on other penicillin substrates and found detectable expansion with each of the 15 substrates that we tested. […] The reactions contained 4 mg/ml extract (protein concentration), 50 mM Tris-HCl pH 7.4, 1.8 mM FeSO4, 1.28 mM α-ketoglutarate, 8 mM MgSO4, 8 mM KCl, 4 mM ascorbic acid, 14 mM DTT, and 2 mg/ml substrate (except for penicillin mX and octanoyl-6-APA, which were used at 3 mg/ml). Samples were centrifuged at 12K rpm for 5 minutes after 2 hours of reaction. 250 μl of reaction mixture was used in each bioassay.

[2] = system: S. clavuligerus NP1 resting cells; experiment: Penicillin G ring expansion by resting cells, paper disc-agar diffusion bioassay (Example 1); assay type: cell-based; conditions: for DAOG produced: after 3-6 hours of reaction
Method: Resting Cells: From a seed culture (in MST), 0.5 ml was transferred to new flasks containing 40 ml of the same medium. Cells were grown at 30° C., 250 rpm for 24 h. Mycelia from each flask were washed twice, and finally, resuspended in 10 ml of distilled water. Four ml of this cell suspension were used in the reaction mixture.
as §1, §2

T2 sequence (P18548 whole entry, the tested form may be a part): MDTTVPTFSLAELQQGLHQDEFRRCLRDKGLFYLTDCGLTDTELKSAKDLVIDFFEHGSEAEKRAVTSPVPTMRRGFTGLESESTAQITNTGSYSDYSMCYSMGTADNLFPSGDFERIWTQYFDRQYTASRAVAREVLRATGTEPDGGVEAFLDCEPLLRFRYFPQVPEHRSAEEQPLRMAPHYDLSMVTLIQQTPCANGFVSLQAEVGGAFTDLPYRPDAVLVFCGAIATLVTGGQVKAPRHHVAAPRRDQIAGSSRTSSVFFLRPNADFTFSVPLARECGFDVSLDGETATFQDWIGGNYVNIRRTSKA

Question: For `CC1(C)S[C@@H]2[C@H](NC(=O)Cc3ccccc3)C(=O)N2[C@H]1C(=O)O` [Penicillin G, penicillin G], which “substrate for expandase activity” value (C. acremonium expandase; crude extracts (Kohsaka et al. 1976; Demain et al.)) is on record?
Answer: not

Question: And the ring expansion (C. acremonium expandase; partially purified enzyme (Kupka et al. 1983))?
Answer: does not expand

Question: And the “Ring expansion, size of zones of inhibition” value ([1]; 4 mg/ml extract protein, 2 mg/ml substrate (penicillin mX and octanoyl-6-APA 3 mg/ml), 2 hours)?
Answer: Large zones of inhibition

Question: And the “Inhibition Zone Diameter” value ([1]; 4 mg/ml extract protein, 2 mg/ml substrate, 2 hours of reaction, 250 μl in bioassay (E. coli ESS, penicillinase))?
Answer: 29 mm

Question: And the DAOG ([1]; protein 1 mg/ml, FeSO4 0.036 mM, α-ketoglutarate 0.64 mM, penicillin G 0.1 mg/ml)?
Answer: <2 µg/mL

Question: And the DAOG ([1]; protein 1 mg/ml, FeSO4 0.036 mM, α-ketoglutarate 0.64 mM, penicillin G 0.3 mg/ml)?
Answer: <2 µg/mL

Question: And the DAOG ([1]; protein 1 mg/ml, FeSO4 0.036 mM, α-ketoglutarate 0.64 mM, penicillin G 1 mg/ml)?
Answer: 2.1 µg/mL

Question: What about the DAOG ([1]; protein 1 mg/ml, FeSO4 1.8 mM, α-ketoglutarate 1.28 mM, penicillin G 0.1 mg/ml) of the same compound?
Answer: <2 µg/mL

Question: What about the DAOG ([1]; protein 1 mg/ml, FeSO4 1.8 mM, α-ketoglutarate 1.28 mM, penicillin G 0.3 mg/ml) of the same compound?
Answer: <2 µg/mL

Question: And the DAOG ([1]; protein 1 mg/ml, FeSO4 1.8 mM, α-ketoglutarate 1.28 mM, penicillin G 1 mg/ml)?
Answer: 2.1 µg/mL

Question: What about the DAOG ([1]; protein 2 mg/ml, FeSO4 0.036 mM, α-ketoglutarate 0.64 mM, penicillin G 0.1 mg/ml) of the same compound?
Answer: <2 µg/mL

Question: What about the DAOG ([1]; protein 2 mg/ml, FeSO4 0.036 mM, α-ketoglutarate 0.64 mM, penicillin G 0.3 mg/ml) of the same compound?
Answer: 2.1 µg/mL

Question: And the DAOG ([1]; protein 2 mg/ml, FeSO4 0.036 mM, α-ketoglutarate 0.64 mM, penicillin G 1 mg/ml)?
Answer: 2.6 µg/mL

Question: What about the DAOG ([1]; protein 2 mg/ml, FeSO4 1.8 mM, α-ketoglutarate 1.28 mM, penicillin G 0.1 mg/ml) of the same compound?
Answer: 2.1 µg/mL

Question: What about the DAOG ([1]; protein 2 mg/ml, FeSO4 1.8 mM, α-ketoglutarate 1.28 mM, penicillin G 0.3 mg/ml) of the same compound?
Answer: 2.3 µg/mL

Question: What about the DAOG ([1]; protein 2 mg/ml, FeSO4 1.8 mM, α-ketoglutarate 1.28 mM, penicillin G 1 mg/ml) of the same compound?
Answer: 3.4 µg/mL

Question: And the DAOG ([1]; protein 4 mg/ml, FeSO4 0.036 mM, α-ketoglutarate 0.64 mM, penicillin G 0.1 mg/ml)?
Answer: 2.3 µg/mL

Question: And the DAOG ([1]; protein 4 mg/ml, FeSO4 0.036 mM, α-ketoglutarate 0.64 mM, penicillin G 0.3 mg/ml)?
Answer: 2.6 µg/mL

Question: And the DAOG ([1]; protein 4 mg/ml, FeSO4 0.036 mM, α-ketoglutarate 0.64 mM, penicillin G 1 mg/ml)?
Answer: 3.4 µg/mL

Question: And the DAOG ([1]; protein 4 mg/ml, FeSO4 1.8 mM, α-ketoglutarate 1.28 mM, penicillin G 0.1 mg/ml)?
Answer: 2.8 µg/mL

Question: And the DAOG ([1]; protein 4 mg/ml, FeSO4 1.8 mM, α-ketoglutarate 1.28 mM, penicillin G 0.3 mg/ml)?
Answer: 3.4 µg/mL

Question: And the DAOG ([1]; protein 4 mg/ml, FeSO4 1.8 mM, α-ketoglutarate 1.28 mM, penicillin G 1 mg/ml)?
Answer: 5.6 µg/mL

Question: And the “μg DAOG/ml” value ([2]; resting cells 13 mg/ml dry cell weight, 2 mg/ml penicillin G, 2 h, cofactor omitted: ATP (0.7 mM))?
Answer: 10.0 μg DAOG/ml

Question: And the “μg DAOG/ml” value ([2]; resting cells 13 mg/ml dry cell weight, 2 mg/ml penicillin G, 2 h, cofactor omitted: Ascorbic acid (4 mM))?
Answer: 3.0 μg DAOG/ml

Question: And the “μg DAOG/ml” value ([2]; resting cells 13 mg/ml dry cell weight, 2 mg/ml penicillin G, 2 h, cofactor omitted: DTT (16 mM))?
Answer: 15.5 μg DAOG/ml

Question: And the “μg DAOG/ml” value ([2]; resting cells 13 mg/ml dry cell weight, 2 mg/ml penicillin G, 2 h, cofactor omitted: FeSO4.7H2O (1.8 mM))?
Answer: 3.2 μg DAOG/ml

Question: What about the “μg DAOG/ml” value ([2]; resting cells 13 mg/ml dry cell weight, 2 mg/ml penicillin G, 2 h, cofactor omitted: KCl (8 mM)) of the same compound?
Answer: 11.5 μg DAOG/ml

Question: And the “μg DAOG/ml” value ([2]; resting cells 13 mg/ml dry cell weight, 2 mg/ml penicillin G, 2 h, cofactor omitted: MgSO4.7H2O (8 mM))?
Answer: 10.1 μg DAOG/ml

Question: What about the “μg DAOG/ml” value ([2]; resting cells 13 mg/ml dry cell weight, 2 mg/ml penicillin G, 2 h, cofactor omitted: None) of the same compound?
Answer: 10.5 μg DAOG/ml

Question: What about the “μg DAOG/ml” value ([2]; resting cells 13 mg/ml dry cell weight, 2 mg/ml penicillin G, 2 h, cofactor omitted: α-ketoglutarate (1.28 mM)) of the same compound?
Answer: 3.7 μg DAOG/ml

Question: And the DAOG produced ([2]; resting cells, Maeda et al. reaction conditions (0.04 mM FeSO4, 0.64 mM α-ketoglutarate))?
Answer: about 6 μg/ml

Question: What about the DAOG produced ([2]; resting cells, inventive conditions (1.8 mM FeSO4, 1.28 mM α-ketoglutarate)) of the same compound?
Answer: about 19 μg/ml

Question: And the “DAOG produced relative to complete reaction” value ([2]; resting cells, two hours, omission of Fe2+, α-ketoglutarate, or ascorbic acid)?
Answer: about 30%

Question: What about the “μg DAOG/ml” value ([2]; resting cells, ATP concentration 0 (mM)) of the same compound?
Answer: 6.6 μg DAOG/ml

Question: And the “μg DAOG/ml” value ([2]; resting cells, ATP concentration 0.14 (mM))?
Answer: 6.4 μg DAOG/ml

Question: What about the “μg DAOG/ml” value ([2]; resting cells, ATP concentration 0.35 (mM)) of the same compound?
Answer: 6.4 μg DAOG/ml

Question: What about the “μg DAOG/ml” value ([2]; resting cells, ATP concentration 0.7 (mM)) of the same compound?
Answer: 6.6 μg DAOG/ml

Question: And the “μg DAOG/ml” value ([2]; resting cells, ATP concentration 2.4 (mM))?
Answer: 6.6 μg DAOG/ml

Question: And the “μg DAOG/ml” value ([2]; resting cells, ATP concentration 3.5 (mM))?
Answer: 4.7 μg DAOG/ml

Question: And the “μg DAOG/ml” value ([2]; resting cells, Ascorbate concentration 0 (mM))?
Answer: 2.4 μg DAOG/ml

Question: What about the “μg DAOG/ml” value ([2]; resting cells, Ascorbate concentration 0.8 (mM)) of the same compound?
Answer: 4.0 μg DAOG/ml

Question: And the “μg DAOG/ml” value ([2]; resting cells, Ascorbate concentration 2 (mM))?
Answer: 6.0 μg DAOG/ml

Question: And the “μg DAOG/ml” value ([2]; resting cells, Ascorbate concentration 4 (mM))?
Answer: 6.4 μg DAOG/ml

Question: And the “μg DAOG/ml” value ([2]; resting cells, Ascorbate concentration 8 (mM))?
Answer: 6.4 μg DAOG/ml

Question: What about the “increase of DAOG production” value ([2]; resting cells, omission of DTT) of the same compound?
Answer: approximately 50%
